Reference: patent US20130203649A1, “INHIBITORS OF TLR SIGNALING BY TARGETING TIR DOMAIN INTERFACES” (UNIVERSITY OF MARYLAND, BALTIMORE, priority 2012, published 2013)
Entries after “also recorded” stand apart in the source; their conditions may differ. No end group written: not given here.

Assays:
MAPK (ERK, JNK, p38) = assay: MAPK activation by peptide alone, macrophages without TLR agonist; format: cell-based, mouse; settings: 20 μM peptide, 1 hour incubation
Description: Neither TIRAP peptide activated ERK in cells incubated without a TLR agonist (not shown). […] The mechanism of this differential MAPK activation by select peptides, although interesting, is not understood at this time. Peptides TR9 and TR11 inhibited both ERK and JNK MAPKs (FIG. 1D). Peptide-induced inhibition of ERK persisted over a long period of time.
We next examined whether TRAM peptides inhibit the TLR4-mediated p38, ERK, and JNK MAPK activation. Murine macrophages pretreated with peptides for 30 min were challenged with LPS. Cell lysates were collected 30 min post-stimulation and analyzed for MAPK phosphorylation by Western analysis. Consistent with peptide effects on steady-state mRNA, both TM4 and TM6 inhibited activation of all three MAPKs (FIG. 5C). The inhibition of MAPKs by TM4 or TM6 was long lasting; it persisted for at least 1 h after LPS stimulation (data not shown). To characterize further the effects of TRAM peptides on MAPKs, murine macrophages were treated with TRAM peptides, but not challenged by LPS.

TLR2/TLR1 heterodimer [1] = target: T1, TLR2/TLR1 heterodimer (Mus musculus, UniProt Q9QUN7); assay: P3C-induced ERK phosphorylation in primary macrophages (Western analysis); format: cell-based; settings: P3C 30 min
T1 construct: endogenous in cells; host or cells: thioglycollate-elicited mouse peritoneal macrophages
Description: (§1) FIG. 3. Effect of TIRAP decoy peptides on TLR2 signaling. Thioglycollate-elicited macrophages were incubated in the presence of 20 (black columns) or 40 μM (open columns) of a decoy peptide for 30 min prior to stimulation with P3C (500 ng/ml) (A and C) or P2C (50 ng/ml) (B). Cytokine mRNA expression was measured 1 h after TLR2 stimulation and is normalized to the expression of HPRT gene. C. IL-6 and TNF-α were measured by ELISA in macrophage supernatants collected 5 h after P3C (500 ng/ml) stimulation. D. Peptides TR3 and TR6 inhibit ERK activation induced by TLR2 agonist, P3C. ERK phosphorylation was measured by Western analysis in primary macrophage stimulated by P3C for 30 min.
Cellular protein extracts were isolated by addition of 240 μL per well cold lysate buffer (20 mM Tris, 50 mM NaCl, 1.5 mM MgCl2, 2 mM EDTA, 10 mM NaF, 2 Mm DTT, 1 mM Na3VO4, 1% Triton). Cells were incubated with lysis solution for 30 min on agitator at 4° C. […] After quantification using BioRad protein assay, protein samples were added to Laemmli buffer and then boiled for 10 min. […]
(§2) Because of the role TRAP plays in TLR2 signaling, TIRAP TIR-derived decoy peptide effects on TLR2-induced cytokine mRNA expression were examined. […] To confirm the inhibitory effect of TR3 and TR6 on P3C-induced signaling, IL-6 and TNF-α concentration was measured in macrophage supernatants collected 5 h after stimulation of cells with P3C. […]

TLR2/TLR1 heterodimer [2] = target: T1, TLR2/TLR1 heterodimer; assay: P3C-induced IL-6 and TNF-α secretion by macrophages (ELISA); format: cell-based; settings: supernatants 5 h after P3C 500 ng/ml
Description: as §1
Cytokine secretion was measured in supernatant samples collected at 6 or 24 h time points and stored at −80° C. Samples were analyzed by a multiplex assay at the University of Maryland Baltimore Cytokine Core Facility using a Luminex 100 reader and Softmax Pro software, or by ELISA kits for mouse IL-6 or TNF-α from BioLegend (San Diego, Calif.) and LT-4000 microplate reader.
as §2

T1 sequence (Q9QUN7 25-784, one chain of several): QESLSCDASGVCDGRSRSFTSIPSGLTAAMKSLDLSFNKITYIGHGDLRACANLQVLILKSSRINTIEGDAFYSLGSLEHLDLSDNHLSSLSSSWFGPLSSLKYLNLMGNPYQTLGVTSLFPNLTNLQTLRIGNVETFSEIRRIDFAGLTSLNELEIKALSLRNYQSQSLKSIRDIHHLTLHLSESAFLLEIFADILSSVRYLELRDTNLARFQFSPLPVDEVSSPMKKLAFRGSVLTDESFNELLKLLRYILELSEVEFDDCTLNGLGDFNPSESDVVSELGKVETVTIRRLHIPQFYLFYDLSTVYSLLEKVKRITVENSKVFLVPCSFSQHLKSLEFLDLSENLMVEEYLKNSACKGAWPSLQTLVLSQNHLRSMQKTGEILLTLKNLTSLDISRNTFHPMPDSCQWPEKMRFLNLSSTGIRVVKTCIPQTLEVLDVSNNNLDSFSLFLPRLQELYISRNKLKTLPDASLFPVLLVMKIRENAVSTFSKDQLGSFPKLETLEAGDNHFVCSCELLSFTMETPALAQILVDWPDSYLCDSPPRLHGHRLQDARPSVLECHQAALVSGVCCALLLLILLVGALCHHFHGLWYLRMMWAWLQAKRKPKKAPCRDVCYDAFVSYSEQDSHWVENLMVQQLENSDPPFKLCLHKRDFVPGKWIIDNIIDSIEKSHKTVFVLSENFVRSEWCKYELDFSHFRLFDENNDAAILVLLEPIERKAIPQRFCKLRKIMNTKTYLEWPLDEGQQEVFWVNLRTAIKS

Row | Sequence | JNK activation in macrophages without TLR agonist (MAPK (ERK, JNK, p38)) | P3C-induced ERK phosphorylation (TLR2/TLR1 heterodimer [1]) | P3C-induced IL-6 and TNF-α secretion (TLR2/TLR1 heterodimer [2])
1 | RQIKIWFQNRRMKWKKPGFLRDPWCKYQML [TR6] | moderately activated | diminished; also recorded: inhibit | profoundly inhibited
2 | RQIKIWFQNRRMKWKKEGSQASLRCF [TR3] | moderately activated | diminished; also recorded: inhibit | profoundly inhibited
